{
  "source": "patent US20030109699A1",
  "about": "“Amphiphilic quinolylpolyamines as transfer agents for biologically active macromolecules” (priority 1999, published 2003)",
  "key": {"eucaryotic cells": {"system": "eucaryotic cells", "conditions": "10-100 μM chloroquine added to the cell culture medium; cited from earlier work"}, "[1]": {"system": "different tumor cell lines (HeLa, Hec1a, SKOV3, MCF-7, Hey, SKBR3)", "conditions": "lipids mixed with DOPE; all tested cell lines; versus Transfectam, Lipofectamine and DC-Chol; GFP and beta-galactosidase reporter plasmids; FIGS. 5 and 6", "excerpt": "In general: The cell lines used HeLa, Hec1a, SKOV3, MCF-7, Hey, SKBR3, T47D, 293 were cultivated according to standard ATCC conditions. Commercial transfection reagents Transfectam®, Lipofectamine™ und Superfect were used according to the manufacturer's instructions. DC-Chol was synthesized as described previously [L. Huang et al. Biochem. Biophys. Res. Commun. 179(1) (1991) 280-285] and was formulated with DOPE for the transfection experiments.\nThe day before the transfection 40-50000 cells were seeded per well in a 24-well cell culture plate (appr. 70% confluence). For the preparation of the complexes 3 μl (for SKBR3, MCF-7, Hey) respectively 6 μl (for HeLa, Hec1a, SKOV3) of the aqueous lipid reagent (30 mol % lipid #2 respectively #7 respectively #9; 70 mol % DOPE) were added to a solution of each 2 μg of the plasmid-DNA (pEGFP-N1; Clontech Laboratories, Inc; Katalog-Nr. 6085-1) in 300 μl of fcs-free medium and were incubated at room temperature for 30 min. Shortly before the transfection the cell culture medium was replaced with 700 μl fresh medium (14.3% fcs). After addition of the lipid-DNA complexes and incubation of the cells for 48 hours the percentage of GFP expressing fluorescent cells was determined by FACS-analysis. For this the cells were washed with PBS and were separated by trypsination and subsequent centrifugation. The thus obtained cell pellet was resuspended in 500 μl PBS and the percentage of fluorescent cells was determined by FACS-analysis using a FACScan device (Becton Dickinson)."}, "breast tumor cells MCF7": {"system": "breast tumor cells MCF7", "conditions": "FIG. 9; for transfection efficiency with pEGFP-N1-plasmid compared with Transfectam: mixtures with 70 mol % DOPE in ethanolic solutions, MCF7; for percentage of transfected cells after pre-complexing of the DNA with protamine sulfate: mixtures with 70 mol % DOPE, ethanolic, DNA pre-complexed with protamine sulfate versus not", "method": "The day before the transfection 40-50000 cells were seeded per well in a 24-well cell culture plate (appr. 70% confluence). For the preparation of the complexes 4 μl of the ethanolic lipid reagent (30 mol % lipid #2 respectively #7; 70 mol % DOPE) were added to a solution of each 2 μg of the plasmid-DNA (pEGFP-N1; Clontech Laboratories, Inc; catalog-nr. 6085-1) in 300 μl fcs-free medium and were incubated at room temperature for 30 min. For the transfection in the presence of protamine sulfate 2 μg plasmid-DNA was pre-complexed with 2 μg protamine sulfate in 300 μl serum free medium for 10 min whereupon 4 μl of the lipid reagent were added. Shortly before the transfection the cell culture medium was replaced with 700 μl fresh medium (14.3% fcs). After addition of the lipid-DNA complexes and incubation of the cells for 48 hours the percentage of GFP expressing fluorescent cells was determined by FACS-analysis as described above."}},
  "data": [
    {"smiles": "CCN(CC)CCCC(C)Nc1ccnc2cc(Cl)ccc12", "note": "(centres unmarked) [chloroquine]", "values": [
      {"measurement": "effect on the efficiency of the cationic amphiphiles", "setting": "eucaryotic cells", "result": "significantly increases the efficiency"}
    ]},
    {"smiles": "CCCCCCCC/C=C\\CCCCCCCC(=O)OC[C@@H](CN(CCCNc1ccnc2cc(Cl)ccc12)CCN(C)C)OC(=O)CCCCCCC/C=C\\CCCCCCCC", "note": "[#9, 7-chloro-4-[N^1-(N^5-(2(R),3-dioleoyloxy)propyl)-(N^8-dimethyl)-1,5,8-triaza-octyl]-quinoline]", "values": [
      {"measurement": "transfection efficiency compared with known lipid formulations", "setting": "[1]", "result": "higher efficiency"}
    ]},
    {"smiles": "CC(C)CCC[C@@H](C)[C@H]1CC[C@H]2[C@@H]3CC=C4C[C@@H](OC(=O)N(CCCNc5ccnc6cc(Cl)ccc56)CCN(C)C)CC[C@]4(C)[C@H]3CC[C@]12C.Cl", "note": "[#7, 7-chloro-4-[N^1-(N^5-carboxycholesteryl)-(N^8-dimethyl)-1,5,8-triaza-octyl]-quinoline Hydrochloride]", "values": [
      {"measurement": "transfection efficiency with pEGFP-N1-plasmid compared with Transfectam", "setting": "breast tumor cells MCF7", "result": "significantly more efficient"},
      {"measurement": "percentage of transfected cells after pre-complexing of the DNA with protamine sulfate", "setting": "breast tumor cells MCF7", "result": "significant increase"},
      {"measurement": "transfection efficiency compared with known lipid formulations", "setting": "[1]", "result": "higher efficiency"}
    ]},
    {"smiles": "CCN(CC)CCN(CCNc1ccnc2cc(Cl)ccc12)C(=O)O[C@H]1CC[C@@]2(C)C(=CC[C@H]3[C@@H]4CC[C@H]([C@H](C)CCCC(C)C)[C@@]4(C)CC[C@@H]32)C1.Cl", "note": "[#2, 7-chloro-4-[N^1-(N^4-carboxycholesteryl)-(N^7-diethyl)-1,4,7-triaza-heptyl]-quinoline Hydrochloride]", "values": [
      {"measurement": "transfection efficiency with pEGFP-N1-plasmid compared with Transfectam", "setting": "breast tumor cells MCF7", "result": "significantly more efficient"},
      {"measurement": "percentage of transfected cells after pre-complexing of the DNA with protamine sulfate", "setting": "breast tumor cells MCF7", "result": "significant increase"},
      {"measurement": "transfection efficiency compared with known lipid formulations", "setting": "[1]", "result": "higher efficiency"}
    ]}
  ]
}
